Consider 13 compounds from ChEMBL document CHEMBL1134821, “Synthesis and anti-HIV activity of oleanolic acid derivatives” (Bioorg Med Chem Lett, 2001).

In brackets after ≈: the same amount, converted by molar mass.

The nature of data set [1]: Therapeutic index was determined. The note with it: for selectivity ratio: read-out: TI.
For data set [2], the system named is H9. Briefly: Concentration which was toxic to 50% of the mock-infected H9 lymphocyte. As to conditions: Homo sapiens. The data set is classed as functional, cell-based.
Data set [3] has as its system H9. Briefly: Antiviral activity against HIV-1(IIIB) infected H9 cell lines. The data set is classed as functional, cell-based. The note with it: Homo sapiens.

In the case of `CC1(C)CC[C@]2(C(=O)O)CC[C@]3(C)[C@H](CC[C@@H]4[C@@]5(C)CC[C@H](OC(=O)CCCC(=O)O)C(C)(C)[C@@H]5CC[C@]43C)[C@@H]2C1`, the selectivity ratio in data set [1] amounted to 4.9. Also, inhibition in the data set with H9 [2] was half-maximal at 12.9 µg/mL (≈ 22.5 µM) (IC50). For the same compound, it took 2.6 µg/mL (≈ 4.54 µM) to reach a half-maximal effect in the data set on H9 [3] (EC50).

For the compound `CC(CC(=O)O)CC(=O)O[C@H]1CC[C@]2(C)[C@H]3CC=C4[C@@H]5CC(C)(C)CC[C@]5(C(=O)O)CC[C@@]4(C)[C@]3(C)CC[C@H]2C1(C)C` (stereo partly specified), the selectivity ratio in data set [1] is 3.3. Also, it took 27.5 µg/mL (≈ 47 µM) to reach half-maximal inhibition in the data set with H9 [2] (IC50). For the same compound, it took 8.3 µg/mL (≈ 14.2 µM) to reach a half-maximal effect in the data set on H9 [3] (EC50).

Regarding `CC1(C)CC[C@]2(C(=O)O)CC[C@]3(C)[C@H](CC[C@@H]4[C@@]5(C)CC[C@H](OC(=O)CC(C)(C)C(=O)O)C(C)(C)[C@@H]5CC[C@]43C)[C@@H]2C1`, the selectivity ratio in data set [1] amounted to 3570. Moreover, the concentration for half-maximal inhibition (IC50) – broadly, the midpoint of a concentration-inhibition curve – with H9 [2] was found to be 13.7 µg/mL (≈ 23.3 µM). Further, it took 0.0039 µg/mL (≈ 0.00665 µM) to reach a half-maximal effect in the data set with H9 [3] (EC50).

Regarding `CC(C)(CC(=O)O)CC(=O)NC[C@]12CCC(C)(C)C[C@H]1C1=CC[C@@H]3[C@@]4(C)CC[C@H](OC(=O)CC(C)(C)CC(=O)O)C(C)(C)[C@@H]4CC[C@@]3(C)[C@]1(C)CC2`, the selectivity ratio in data set [1] is 212. The IC50 with H9 [2] was found to be 21.2 µg/mL (≈ 29.2 µM). In addition, in the data set with H9 [3], the response was half-maximal at 0.1 µg/mL (≈ 0.138 µM) (EC50).

On to `CC(CC(=O)O)CC(=O)O[C@H]1CC[C@]2(C)[C@H]3CC[C@@H]4[C@@H]5CC(C)(C)CC[C@]5(C(=O)O)CC[C@@]4(C)[C@]3(C)CC[C@H]2C1(C)C` (stereo partly specified), for which the selectivity ratio in data set [1] came out at 123. For the same compound, it took 12.3 µg/mL (≈ 21 µM) to reach half-maximal inhibition in the data set with H9 [2] (IC50). Moreover, the 50% effective concentration (EC50) – broadly, the concentration that produces a half-maximal response – in the data set on H9 [3] worked out at 0.1 µg/mL (≈ 0.17 µM).

Turning to `CC(C)(CC(=O)O)CC(=O)O[C@H]1CC[C@]2(C)[C@H]3CC[C@@H]4[C@@H]5CC(C)(C)CC[C@]5(C(=O)O)CC[C@@]4(C)[C@]3(C)CC[C@H]2C1(C)C`, in data set [1], the selectivity ratio came to 83. The compound also returned a half-maximal inhibitory concentration (IC50) in the data set with H9 [2] of 8.3 µg/mL (≈ 13.8 µM). In the data set with H9 [3], this compound showed an EC50 of 0.1 µg/mL (≈ 0.166 µM).

In the case of `CC1(C)CC[C@]2(C(=O)O)CC[C@]3(C)[C@H](CC[C@@H]4[C@@]5(C)CC[C@H](O)C(C)(C)[C@@H]5CC[C@]43C)[C@@H]2C1`, the selectivity ratio in data set [1] was 34.8. In addition, in the data set on H9 [2], inhibition was half-maximal at 17.4 µg/mL (≈ 37.9 µM) (IC50). The EC50 in the data set with H9 [3] was determined as 0.5 µg/mL (≈ 1.09 µM).

Turning to `CC(C)(CC(=O)O)CC(=O)O[C@H]1CC[C@]2(C)[C@H]3CC=C4[C@@H]5CC(C)(C)CC[C@]5(C(=O)O)CC[C@@]4(C)[C@]3(C)CC[C@H]2C1(C)C`, half-maximal inhibition in the data set on H9 [2] (IC50) required 14.2 µg/mL (≈ 23.7 µM). The compound also registered an EC50 with H9 [3] of 1.5 µg/mL (≈ 2.5 µM).

Consider `CC1(C)CC[C@]2(C(=O)O)CC[C@]3(C)C(=CC[C@@H]4[C@@]5(C)CC[C@H](OC(=O)CCCC(=O)O)C(C)(C)[C@@H]5CC[C@]43C)[C@@H]2C1`, for which, in the data set with H9 [2], the concentration for half-maximal inhibition (IC50) is 14.6 µg/mL (≈ 25.6 µM). Moreover, in the data set on H9 [3], the concentration giving a half-maximal response (EC50) amounted to 7.1 µg/mL (≈ 12.4 µM).

Regarding `CC1(C)CC[C@]2(C(=O)O)CC[C@]3(C)C(=CC[C@@H]4[C@@]5(C)CC[C@H](OC(=O)CC6(CC(=O)O)CCCC6)C(C)(C)[C@@H]5CC[C@]43C)[C@@H]2C1`, the 50% inhibitory concentration (IC50) in the data set on H9 [2] stood at 4.7 µg/mL (≈ 7.52 µM). This compound gave a 50% effective concentration (EC50) in the data set on H9 [3] of 1.2 µg/mL (≈ 1.92 µM).

As for `CC1(C)CC[C@]2(C(=O)O)CC[C@]3(C)[C@H](CC[C@@H]4[C@@]5(C)CC[C@H](OC(=O)CC6(CC(=O)O)CCCC6)C(C)(C)[C@@H]5CC[C@]43C)[C@@H]2C1`, in data set [1], the selectivity ratio is 101. The same compound had a half-maximal inhibitory concentration (IC50) in the data set with H9 [2] of 10.1 µg/mL (≈ 16.1 µM). The compound also came in with an EC50 with H9 [3] of 0.1 µg/mL (≈ 0.16 µM).

For `CC1(C)CC[C@]2(CNC(=O)CC3(CC(=O)O)CCCC3)CC[C@]3(C)C(=CC[C@@H]4[C@@]5(C)CC[C@H](OC(=O)CC6(CC(=O)O)CCCC6)C(C)(C)[C@@H]5CC[C@]43C)[C@@H]2C1`, in data set [1], the selectivity ratio turned out to be 195. The same compound displayed a half-maximal inhibitory concentration (IC50) with H9 [2] of 19.5 µg/mL (≈ 25.1 µM). Also, the EC50 with H9 [3] was 0.1 µg/mL (≈ 0.129 µM).

With `CC1(C)CC[C@]2(C(=O)O)CC[C@]3(C)C(=CC[C@@H]4[C@@]5(C)CC[C@H](O)C(C)(C)[C@@H]5CC[C@]43C)[C@@H]2C1` [OLEANOLIC_ACID], in data set [1], the TI is given as 12.8. In the data set on H9 [2], this compound registered a concentration for half-maximal inhibition (IC50) of 21.8 µg/mL (≈ 47.7 µM). In the data set on H9 [3], this compound returned an EC50 of 1.7 µg/mL (≈ 3.72 µM).
